Experimental data from US20090221683A1, “Combination of CXCR4 Antagonist and Morphogen to Increase Angiogenesis” (Caritas St.Elizabeth Medical Center of Boston, Inc, priority 2005, published 2009).
Where two headings read alike, the source gives them in different places.

Assays:
[1] = system: bone marrow EPCs (Sca-1/Flk-1 positive) of MMP-9-/- mice; settings: 1 week after MI
Text: MMP-9 expression was disrupted by deleting of most of exon 2 of the MMP-9 gene in the 129/SvEv genetic background (Jackson), as described previously. [Vu, 1998 #2370] […] Mononuclear cells from peripheral blood and total BM cells were isolated one week after MI and were examined by FACS analysis as described above.

left ventricle fibrosis = settings: two weeks after AMI
Experimental: (§1) The explanted hearts of sacrificed mice were sliced in a bread-loaf fashion into transverse sections from apex to base (base-, mid-, and apex-portions) and fixed with 4% paraformaldehyde. Tissues were embedded in paraffin and sectioned for elastic tissue/trichrome staining and immunohistochemistry using the murine-specific EC marker Bandeiraea simplicifolia lectin I (Isolectin B4) (Vector laboratories).
(§2) Capillary density was assessed by histological examination of five randomly selected fields of tissue sections from segments of the left ventricular myocardium served by the occluded LAD. Capillaries were recognized as tubular structures positive for isolectin B4. Elastic tissue/trichrome-stained tissues from the mice four weeks after MI were used to measure the average ratio of the external circumference of fibrosis area to LV area.

[2] = system: left ventricular myocardium border zone capillaries; settings: two weeks after AMI
Experimental: as §1, §2

peripheral blood EPCs = system: peripheral blood EPCs
Experimental: (§3) Peripheral blood mononuclear cells (PBMNCs) were isolated from 500 μl of peripheral blood obtained from each mouse. PBMNCs were cultured in EBM media (Clonetics, San Diego, Calif.) supplemented with 5% fetal bovine serum (FBS), antibiotics, and growth factors (EPC medium) on four 4-well glass slides coated with rat plasma vitronectin (Sigma) in 0.5% gelatin solution. Four days after culture, EPCs, recognized as attaching spindle-shaped cells, were assayed by co-staining with acetylated LDL (acLDL)-DiI (Biomedical Technologies, Stoughton, Mass.) and Bandeiraea simplicifolia (BS-1) lectin I (Vector Laboratories, Burlingame, Calif.), characteristics indicators of endothelial lineage, and conjugated with FITC (Sigma). Fluorescent microscopy identified double-positive cells as […] The numbers of double-positive cells per sample, measured in fifteen fields under 20× magnification, was were counted per sample in a blinded manner.
At each time point after the induction of MI, mononuclear cells were isolated from peripheral blood and total BM cells that had been obtained by flushing the tibias and femurs. EPCs were counted by culturing as described in Example 1, and stained with both acLDL-DiI and BS-1 lectin. Double positive cells were counted in 15 fields under objective 20× magnification per sample in a blinded manner.

[3] = system: peripheral blood MNCs and EPCs
Experimental: as §3
(§4) Such methods can be used for study of the compositions and methods of the instant invention.

[4] = system: bone marrow derived EPCs (X-gal positive cells); settings: Tie2-LacZ/BMT mice
Text: as §4, §4

MMP-9 mRNA = settings: one week after MI; RT-PCR
Experimental: (§5) RNA was extracted from mononuclear cells isolated from bone marrow using TRIzol reagent (Invitrogen) according to the manufacture's instruction. Reverse transcriptase-polymerase chain reaction (RT-PCR) of the MMP-9 and GAPDH genes was performed using 1 pg of total RNA. PCR was performed for 25 cycles for both MMP-9 and GAPDH; each cycle maintained 94° C. for 30 seconds and 64° C. for three minutes. Amplification was carried out in 20-μl reaction mixtures containing 0.4 U Taq polymerase.

MMP-2 mRNA = settings: one week after MI; RT-PCR
Experimental: as §5

[5] = system: peripheral blood EPCs (Sca-1/Flk-1 positive); settings: one week after MI
Experimental: (§6) Fluorescence-activated cell sorting (FACS) was used to identify EPCs from mononuclear cells isolated both from peripheral blood and bone marrow. The viable mononuclear cell population was analyzed for the expression of Sca-1-FITC (Pharmingen) and Flk-1 (Santa Cruz) conjugated with the corresponding phycoerythrin-labeled secondary antibody (Sigma). Isotype-identical antibodies served as negative controls. Immunofluorescence-labeled cells were fixed with 2% paraformaldehyde and analyzed by quantitative flow cytometry using a FACStar flow cytometer (Becton Dickinson) and Cell Quest Software that counted 10,000 events per sample.

[6] = system: bone marrow EPCs (Sca-1/Flk-1 positive); settings: one week after MI
Experimental: as §6

[7] = system: FVB mice with myocardial infarction; settings: for FS (fractional shortening) / LVDd (left ventricular diastolic dimension) / LVDs (left ventricular systolic dimension) / LV + dP/dt / LV − dP/dt / LVEDP (left ventricular end-diastolic pressure) / LVSP (left ventricular systolic pressure): mean ± SE
Experimental: (§7) Eight-week old male FVB mice were anesthetized with sodium pentobarbital (50 mg/kg IP). The animals were intubated orally with a 22G IV catheter and artificially ventilated with a respirator (Harvard Apparatus). A left intercostal thoracotomy was performed and the ribs were retracted with 5-0 polypropylene sutures. After the pericardium was opened, the left anterior descending (LAD) branch of the left coronary artery was ligated proximal to the bifurcation between the LAD and the diagonal branch using 8-0 polypropylene sutures and visualized with a dissecting microscope. Positive end-expiratory pressure was applied to fully inflate the lungs, and the chest was closed with 7-0 polypropylene sutures. […] After physiological assessment at one, two and four weeks after MI, a subgroup of the mice were euthanized by intravenous administration of a lethal dose of pentobarbital.
Transthoracic echocardiography (SONOS 5500, Hewlett Packard) was performed just before MI and one, two and four weeks after MI. Left ventricular diastolic (LVDd) and systolic (LVDs) dimensions and fractional shortening were measured at the mid-papillary muscle level. Hemodynamic measurements were obtained at two and four weeks after MI using a 1.0-French high-fidelity pressure catheter (Millar Instruments, Houston, Tex.) via the left carotid artery. LV systolic pressure and maximal positive (+dP/dt) and negative (−dP/dt) pressure development were recorded after stabilization of LV function and heart rate. Such methods can be used for study of the compositions and methods of the instant invention.

[8] = system: border zone between scar and normal tissue capillaries; assay: Chronic MI rats: capillary density in the border zone; type: in vivo, rat; settings: 4 weeks after treatment
Experimental: (§8) Methods: Using wild-type rats, MI was induced by ligation of the left anterior descending artery. […] 4 weeks after treatment, echocardiography, hemodynamic measurement and histological examination were performed.

circulating EPC = settings: 2 hour after treatment; 240 μg/kg SC
Experimental: as §8

[9] = system: bone-marrow derived endothelial cells (double-positive cells); settings: one week after AMI
Text: as §4
Apex-sections from the Tie-2/LZ/BMT mice were embedded in OCT compound (Miles Scientific) and snap-frozen in liquid nitrogen for fluorescence microscopy immediately after sacrifice.
Sections of ischemic (FIGS. 12A-12F) and intact (FIGS. 13A-13F) myocardium were stained for both BS lectin 1 (green fluorescence) and β-galactosidase (red fluorescence). […] Such methods can be used for study of the compositions and methods of the instant invention.

mice with AMI = system: mice with AMI
Experimental: as §7
All values were expressed as mean±the standard error of the mean. […] Overall survival of all the mice was assessed by Kaplan-Meier analysis. Survival in individual experimental groups was also analyzed by Fisher's extract probability test. A p value of less than 0.05 was considered statistically significant.

[10] = 1 week after MI, 125 μg s.c. single injection
[11] = 2 weeks after MI, 125 μg s.c. single injection
[12] = 2 weeks after MI, 125 μg s.c. single injection, listed as AMD
[13] = 2 weeks after MI, listed as AMD
[14] = 4 weeks after MI, 125 μg s.c. single injection
[15] = 4 weeks after MI, 125 μg s.c. single injection, listed as AMD
[16] = 4 weeks after MI, listed as AMD

SMILES: c1cc(CN2CCCNCCNCCCNCC2)ccc1CN1CCCNCCNCCCNCC1 [AMD-3100, 1,1′-[1,4-phenylene-bis(methylene)]-bis-1,4,8,11-tetraazacyclotetradecane]
- difference in Sca-1/Flk-1 positive BM cells versus saline [1]: no significant difference
- fibrosis area of left ventricle (left ventricle fibrosis): 25±6%
- capillary density in the border zone [2]: 4005±189 /mm^2
- number of cultured EPCs (peripheral blood EPCs; four weeks after AMI): returned to basline
- number of EPCs in the peripheral blood (cultured, acLDL-DiI/BS-1 lectin double positive) (peripheral blood EPCs; one week after AMI): 868±210 /mm^2
- number of EPCs in the peripheral blood (cultured, acLDL-DiI/BS-1 lectin double positive) (peripheral blood EPCs; two weeks after AMI): 556±47 /mm^2
- maximal MNCs and EPCs (acLDL uptake and BS-1 lectin double-positive cells) ([3]; 1 hour after single s.c. injection of 125 μg, n=5 experiments): 613±89 cells/mm^2
- time for number of EPCs/MNCs to return to baseline after injection ([3]; single s.c. injection of 125 μg): ≤ 24 h
- number of X-gal positive cells in infarct and border area ([4]; 1 week after AMI): 3776±113 /mm^2
- number of X-gal positive cells in infarct and border area ([4]; 2 weeks after AMI): 1906±138 /mm^2
- MMP-9 mRNA expression in BM-mononuclear cells (MMP-9 mRNA): enhanced expression
- MMP-2 mRNA expression in BM-mononuclear cells (MMP-2 mRNA): but not MMP-2
- EPCs (Sca-1/Flk-1 positive) in peripheral blood mononuclear cells by FACS [5]: 11.3±1.4%
- EPCs (Sca-1/Flk-1 positive) in BM mononuclear cells by FACS [6]: 1.9±0.1%
- FS (fractional shortening) [7, 10]: 35 ± 2%
- LVDd (left ventricular diastolic dimension) [7, 10]: 3.5 ± 0.1 mm
- LVDs (left ventricular systolic dimension) [7, 10]: 2.2 ± 0.1 mm
- FS (fractional shortening) [7, 11]: 34±1%
- LVDd (left ventricular diastolic dimension) [7, 11]: 3.8±0.1 mm
- LVDs (left ventricular systolic dimension) [7, 11]: 2.5±0.1 mm
- FS (fractional shortening) [7, 12]: 34±1%
- LVDd (left ventricular diastolic dimension) [7, 12]: 3.8 ± 0.1 mm
- LVDs (left ventricular systolic dimension) [7, 12]: 2.5 ± 0.1 mm
- LVDd (left ventricular diastolic dimension) ([7]; 2 weeks after MI, 125 μg s.c. single injection, listed as AMD3100): 3.8±0.1 mm
- LV + dP/dt ([7]; 2 weeks after MI): 3383±104 mm Hg/s
- LV − dP/dt ([7]; 2 weeks after MI): 2213±113 mm Hg/s
- LVEDP (left ventricular end-diastolic pressure) ([7]; 2 weeks after MI): 1.6±0.4 mmHg
- LVSP (left ventricular systolic pressure) ([7]; 2 weeks after MI): 71±2 mmHg
- LV − dP/dt [7, 13]: 2842 ± 200 mm Hg/s
- LVEDP (left ventricular end-diastolic pressure) [7, 13]: 1.5±0.2 mmHg
- LVSP (left ventricular systolic pressure) [7, 13]: 73 ± 3 mmHg
- LVDs ([7]; 3 wks post-MI (as printed in text)): 2.5±0.2 mm
- LVDd (left ventricular diastolic dimension) [7, 14]: 4.0±0.1 mm
- LVDs (left ventricular systolic dimension) [7, 14]: 2.6±0.2 mm
- FS (fractional shortening) [7, 15]: 28±1%
- LVDd (left ventricular diastolic dimension) [7, 15]: 4.0 ± 0.1 mm
- LVDs (left ventricular systolic dimension) [7, 15]: 2.9 ± 0.1 mm
- LV − dP/dt ([7]; 4 weeks after MI): 2213 ± 112 mm Hg/s
- LV + dP/dt [7, 16]: 3383±104 mm Hg/s
- LVEDP (left ventricular end-diastolic pressure) [7, 16]: 1.6±0.4 mmHg
- LVSP (left ventricular systolic pressure) [7, 16]: 71±2 mmHg
- FS (fractional shortening) ([7]; Before MI (baseline)): 52 ± 1%
- LVDd (left ventricular diastolic dimension) ([7]; Before MI (baseline)): 2.8 ± 0.1 mm
- LVDs (left ventricular systolic dimension) ([7]; Before MI (baseline)): 1.4 ± 0.1 mm
- difference in left ventricular systolic pressure (LVSP) between the groups ([7]; two weeks after MI): no significant difference
- capillary density in the border zone between scar and normal tissue, increase vs. control [8]: +52%
- circulating EPC counts relative to baseline (circulating EPC): five
- double-positive cells (BS lectin 1 and β-galactosidase) ([9]; a representative section): eight
- double-positive cells (BS lectin 1 and β-galactosidase) ([9]; another representative section): eight
- mice still living (survival rate) (mice with AMI; 14 weeks after AMI, FIG. 4A): 64%
- mice died (mice with AMI; another group of mice, four weeks after MI, FIG. 4B): 42%
- survival rate versus mice receiving saline (mice with AMI; four weeks after MI, P<0.05): higher
